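How tested: cells in 96-well plates exposed to compound for 48 hours at five concentrations. GI50 = concentration required for 50% inhibition of growth. At the TGI there is no net growth.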

Test systems include 786-0 renal; A498 renal; HCT-116 colon; HT29 colon; NCI-H23 lung; RPMI-8226 leukemia; SF-295 CNS; SK-MEL-5 melanoma; SW-620 colon; TK-10 renal; UACC-257 melanoma; UACC-62 melanoma; RXF 393 renal; MDA-MB-231 breast.
Holding throughout (experiment): NCI-60 cell line screen, 48 h

Regarding `NC(=O)CCC(NCc1c2ccccc2[n+]([O-])c2ccccc12)C(=O)O` (stereo not given), the TGI in the test with 786-0 renal, in the test with A498 renal, in the test on HCT-116 colon, in the test on HT29 colon, with NCI-H23 lung and in the test with RPMI-8226 leukemia was > 100 µM in each case. For the same molecule, the TGI in the test with SF-295 CNS, in the test on SK-MEL-5 melanoma, with SW-620 colon, in the test with TK-10 renal, with UACC-257 melanoma and in the test with UACC-62 melanoma was > 100 µM each time.
As to `Cc1c(-c2cc3n(n2)C(c2cccs2)C(C#N)=C(c2ccccc2)N3)c(=O)n(-c2ccccc2)n1C` (stereo not given), the TGI in the test on A498 renal, with HCT-116 colon, with HT29 colon, in the test on NCI-H23 lung, with RXF 393 renal and with SF-295 CNS was > 100 µM in each case. Also, the TGI in the test on SK-MEL-5 melanoma is > 85.8 µM; with SW-620 colon it was > 100 µM; with UACC-257 melanoma, 98.7 µM; in the test with UACC-62 melanoma it was > 100 µM.
With `CC(=O)[O-].CC(=O)[O-].O=C(N/N=C/c1cc(Cl)cc(Cl)c1[OH2+])c1ccncc1.[Co+2]`, the TGI in the test on 786-0 renal, with A498 renal, in the test with HCT-116 colon, in the test on HT29 colon, in the test with NCI-H23 lung and with RPMI-8226 leukemia was > 100 µM in each case. The TGI with RXF 393 renal, in the test on SF-295 CNS, in the test on SK-MEL-5 melanoma, in the test with SW-620 colon, in the test with TK-10 renal and with UACC-257 melanoma was > 100 µM throughout. In addition, the TGI with UACC-62 melanoma was > 100 µM.
Take `COc1ccc(Cc2nc3cc(C(F)(F)F)ccc3n2CCCN(C)C)cc1`: the TGI was found to be 35.6 µM in the test on A498 renal; 39.9 µM with HT29 colon; 64.6 µM in the test with MDA-MB-231 breast; 41.1 µM with NCI-H23 lung; 29.2 µM in the test with RXF 393 renal; 37.5 µM in the test with SF-295 CNS. The TGI in the test with SK-MEL-5 melanoma came out at 30.1 µM; with SW-620 colon, 44.7 µM; in the test with TK-10 renal, 50.2 µM; with UACC-257 melanoma, 33.2 µM; with UACC-62 melanoma, 32.1 µM.
With `CC(=O)c1ccc(Oc2ccc(/C(C)=N\N=C(N)N)cc2)cc1`, the TGI in the test with A498 renal came to 7.53 µM; in the test on HCT-116 colon it was 13 µM; in the test on HT29 colon it was 3.52 µM; in the test with NCI-H23 lung, 12.8 µM; with RPMI-8226 leukemia, 8.7 µM; in the test with SF-295 CNS, 6.18 µM. Also, the TGI in the test with SK-MEL-5 melanoma was found to be 6.98 µM; in the test with TK-10 renal, 12.8 µM; in the test with UACC-257 melanoma, 19 µM; in the test on UACC-62 melanoma it was 10.1 µM.
For `C=C1c2c(cc3c(c2O)c(=O)c2ccccc2n3C)OC1(C)C`, the TGI with A498 renal is > 100 µM; with HT29 colon it was > 100 µM; with NCI-H23 lung, 27.3 µM; in the test with RPMI-8226 leukemia it was > 100 µM; in the test on SF-295 CNS it was > 100 µM; in the test with SK-MEL-5 melanoma it was > 100 µM. The TGI with SW-620 colon, with TK-10 renal and with UACC-62 melanoma was > 100 µM throughout.
For `CC1C(c2ccc3c(c2)OCO3)c2cc3c(cc2OC1N1CCCC1)OCO3` (stereo not given), the TGI in the test on 786-0 renal is > 100 µM; in the test with HCT-116 colon, 54.8 µM; in the test on HT29 colon, > 100 µM; in the test on NCI-H23 lung, > 100 µM; in the test with RPMI-8226 leukemia, 73.2 µM; with SF-295 CNS it was > 100 µM. Also, the TGI in the test on SK-MEL-5 melanoma is 47.2 µM; in the test on SW-620 colon, > 100 µM; in the test on TK-10 renal, > 100 µM; with UACC-257 melanoma it was > 100 µM; in the test on UACC-62 melanoma it was > 100 µM.
Turning to `O=P(O)(O)C(CSc1ccccc1)P(=O)(O)O`, the TGI in the test on A498 renal, with HCT-116 colon, with HT29 colon, in the test on NCI-H23 lung, in the test on RPMI-8226 leukemia and with RXF 393 renal was > 100 µM each time. The TGI in the test on SF-295 CNS, in the test with SK-MEL-5 melanoma, in the test with SW-620 colon, with UACC-257 melanoma and in the test with UACC-62 melanoma was > 100 µM in each case.
As to `NNC(=O)CNC(=O)CSc1nnc(COc2ccc(Cl)cc2)n1-c1ccccc1`, the TGI in the test with 786-0 renal, in the test on A498 renal, in the test with HCT-116 colon, in the test on HT29 colon, in the test with MDA-MB-231 breast and in the test with NCI-H23 lung was > 100 µM each time. Besides, the TGI in the test with RXF 393 renal, in the test with SF-295 CNS, with SW-620 colon, in the test with TK-10 renal, with UACC-257 melanoma and in the test with UACC-62 melanoma was > 100 µM throughout.
Take `CC(=O)O[C@H]1CC[C@]2(C)[C@H]3CC[C@@H]4[C@H]5[C@H](C(C)C)CC[C@]5(C(=O)OCC(CO)(CO)N=C(N)N)CC[C@@]4(C)[C@]3(C)CC[C@H]2C1(C)C`: the GI50 in the test on A498 renal was 1.86 µM; in the test with HT29 colon, 1.75 µM; with RPMI-8226 leukemia, 2.07 µM; in the test on SF-295 CNS, 1.86 µM; in the test on TK-10 renal, 1.67 µM; in the test on UACC-257 melanoma, 1.82 µM. Moreover, the TGI came out at 3.67 µM in the test on A498 renal; 3.29 µM with HT29 colon; 4.81 µM in the test on RPMI-8226 leukemia; 3.79 µM in the test on SF-295 CNS; 3.12 µM with TK-10 renal; 3.97 µM in the test with UACC-257 melanoma.
As to `O=C(NO)c1coc2ccccc2c1=O`, the TGI in the test with A498 renal, in the test with HT29 colon, in the test on NCI-H23 lung, in the test on RPMI-8226 leukemia, in the test on RXF 393 renal and with SF-295 CNS was > 100 µM throughout. The TGI with SK-MEL-5 melanoma, in the test on SW-620 colon, in the test on TK-10 renal, in the test with UACC-257 melanoma and in the test on UACC-62 melanoma was > 100 µM throughout.
As for `CCP(=O)(CC)C(Cl)(Cl)C(O)C(C)(C)C` (stereo not given), the TGI in the test with A498 renal, with HCT-116 colon, in the test with HT29 colon, in the test with MDA-MB-231 breast, in the test on NCI-H23 lung and in the test on RPMI-8226 leukemia was > 100 µM in each case. The TGI in the test with SF-295 CNS, in the test with SK-MEL-5 melanoma, with SW-620 colon, in the test with TK-10 renal and with UACC-257 melanoma was > 100 µM each time.
Take `COP(C)(=O)/C(Cc1ccccc1)=N\O` (stereo not given): the TGI with HCT-116 colon, in the test on HT29 colon, in the test with MDA-MB-231 breast, with NCI-H23 lung, with RPMI-8226 leukemia and in the test with SF-295 CNS was > 100 µM throughout. The TGI in the test with SK-MEL-5 melanoma, in the test on SW-620 colon, with TK-10 renal and in the test with UACC-257 melanoma was > 100 µM each time.
`CC[N+]1(C)CCC(O)(c2ccc(Cl)cc2)C(C(=O)c2ccc(Cl)cc2)C1` (stereo not given): the TGI in the test on A498 renal was found to be 48.3 µM; with HCT-116 colon, 46.7 µM; in the test with HT29 colon, 94.4 µM; in the test on MDA-MB-231 breast, 40.5 µM; in the test on NCI-H23 lung, 38.5 µM; in the test with RXF 393 renal, 27.4 µM. For the same molecule, the TGI was 34.1 µM in the test with TK-10 renal, 61 µM in the test on UACC-257 melanoma and 27.9 µM in the test on UACC-62 melanoma.
As for `CCOc1ccc2c(c1)/C(=C(\C(Cl)=C(Cl)Cl)[N+](=O)[O-])N2`, the TGI in the test with 786-0 renal, in the test with A498 renal, with HCT-116 colon, in the test with HT29 colon, in the test with MDA-MB-231 breast and in the test with NCI-H23 lung was > 100 µM throughout. Further, the TGI in the test on RPMI-8226 leukemia, in the test with SF-295 CNS, in the test on SW-620 colon, in the test on UACC-257 melanoma and in the test with UACC-62 melanoma was > 100 µM each time.
For the molecule `Cc1ccc(C(=O)C(C)N)cc1` (stereo not given), the TGI in the test on 786-0 renal, in the test on A498 renal, in the test with HCT-116 colon, with HT29 colon, with NCI-H23 lung and in the test on RPMI-8226 leukemia was > 100 µM in each case. For the same molecule, the TGI in the test on RXF 393 renal, with SF-295 CNS, with SK-MEL-5 melanoma, in the test on SW-620 colon, in the test on TK-10 renal and in the test with UACC-257 melanoma was > 100 µM throughout. The TGI with UACC-62 melanoma was > 100 µM.
As to `O=C1C2C=CC1C1C(=O)OC(=O)C21` (stereo not given), the TGI in the test on 786-0 renal, with A498 renal, in the test on HCT-116 colon, in the test with HT29 colon, in the test with MDA-MB-231 breast and in the test on NCI-H23 lung was > 100 µM throughout. Also, the TGI in the test on RPMI-8226 leukemia, in the test with SF-295 CNS, in the test on SK-MEL-5 melanoma, in the test with SW-620 colon, in the test on TK-10 renal and with UACC-257 melanoma was > 100 µM in each case. The TGI with UACC-62 melanoma is > 100 µM.
Regarding `CC(C)(C)[Si](C)(C)OCCCC#CCO`, the TGI with A498 renal, with HT29 colon, with NCI-H23 lung, with RPMI-8226 leukemia, in the test on RXF 393 renal and with SF-295 CNS was > 100 µM in each case. Further, the TGI in the test on SK-MEL-5 melanoma, in the test on SW-620 colon, with TK-10 renal, with UACC-257 melanoma and with UACC-62 melanoma was > 100 µM throughout.

For the origin of these results see PubChem BioAssay (NCI).
